Source: US20080299109A1, “MECHANISM OF ASTRICYTE-NEURON SIGNALING” (Korea Institute of Science and Technology, priority 2007, published 2008)

Columns and labels:
[1] = tested on: NMDA receptor-mediated component of the EPSP; experiment: Current clamp EPSP recording in CA1 pyramidal cells; assay type: cell-based, rat; conditions: 50 μM APV
Procedure: (§1) Young rats (Sprague-Dawley, age P15-P20) or mice (C57/B16, age P14-19) were deeply anesthetized with isoflurane and decapitated. The brain was rapidly removed and submerged in an ice-cold oxygenated artificial cerebrospinal fluid (ACSF) comprised of 130 mM NaCl, 24 mM NaHCO3, 3.5 mM KCl, 1.25 mM NaH2PO4, 1 mM CaCl2,3 mM MgCl2, and 10 mM glucose saturated with 95% O2/5% CO2, at pH 7.4.
The hemisected brain was glued onto the stage of a vibrating microtome (Leica VT1000 S) and sections of 300 μm thickness were cut and stored in an incubation chamber at room temperature for about 1 h before use. […]
(§2) Synaptic responses were evoked by applying 0.1 ms current injection (1-100 μA) to a bipolar stimulating electrode placed in the stratum radiatum. Thrombin (Calbiochem) concentration was determined as described by Gingrich et al. (2000) using conversion of 1 U/ml=10 nM. […]
A series of current clamp experiments were carried out to directly measure the effects of PAR1 activation on the NMDA receptor-mediated component of the EPSP recorded in the presence of 1.5 mM Mg^2+. […]

[2] = tested on: synaptic NMDA receptors; experiment: Miniature EPSC analysis in CA1 pyramidal cells; assay type: cell-based, rat; conditions: APV 50 μM
Text: Miniature EPSCs (mEPSCs) were digitized at 10 KHz and the records were filtered with a digital Gaussian filter (−3 dB) with a cutoff frequency of 1 kHz. The mEPSCs were automatically detected and grouped based on an amplitude threshold of 10 pA and a rise time between 0 to 5 (fast rise time) and 5 to 10 ms (slow rise time); a small number of apparent mEPSCs with rise times slower than 10 ms were not studied further. Selected mEPSCs were scaled, averaged, and fitted with a sum of two exponential functions,
Response Amplitude(t)=Amplitude1exp(−time/τ1)+Amplitude2exp(−time/τ2).
If the first decay constant (τ1) and the second decay constant (τ2) were within 10%, the curve was subsequently refitted with a single exponential function. Both the frequency and the peak amplitude of detected events were analyzed. […] All data were acquired, stored, and analyzed using pClamp 8 (Axon Instruments, Foster City, Calif.) and Mini Analysis Program (Synaptosoft). […]
To investigate the effects of PAR1 activation on synaptic NMDA receptors in normal concentrations of Mg^2+ (1.5 mM), the inventors recorded spontaneous miniature excitatory postsynaptic currents (mEPSCs) at −60 mV in the presence of 0.5 μM TTX to look for changes in the amplitude and decay kinetics of individual synaptic currents.

[3] = tested on: CA1 pyramidal cells; experiment: Current clamp membrane potential of CA1 pyramidal cells in hippocampal slices; assay type: cell-based, rat; conditions: APV itself
Procedure: as §1
The hemisected brain was glued onto the stage of a vibrating microtome (Leica VT1000 S) and sections of 300 μm thickness were cut and stored in an incubation chamber at room temperature for about 1 h before use. For voltage clamp experiments, the solution used to fill the electrodes was comprised of 140 mM Cs-MeSO4, 10 mM HEPES, 7 mM NaCl, 4 mM Mg-ATP, and 0.3 mM Na3-GTP; the solution for current clamp recordings was comprised of 140 mM K-MeSO4, 10 mM HEPES, 7 mM NaCl, 4 mM Mg-ATP, and 0.3 mM Na3-GTP, and supplemented with 1 mM QX314; and 1 mM QX314 was omitted from some current clamp recordings (e.g., FIG. 9e).
(§3) Slices were placed on the stage of an upright microscope underneath a platinum and nylon restraining grid, and superfused with oxygenated ACSF at room temperature (23° C.), some experiments are performed at 34° C. by a temperature controller (TC-344B, Warner, Hamden). The standard ACSF recording solution was comprised of 130 mM NaCl, 24 mM NaHCO3, 3.5 mM KCl, 1.25 mM NaH2PO4, 1.5 mM CaCl2, 1.5 mM MgCl2, and 10 mM glucose saturated with 95% O2/5% CO2, at pH 7.4. For some experiments 0.5-1 μM TTX, 10 μM NBQX, or 10-20 μM bicuculline were added to the extracellular solution, extracellular Mg^2+ was reduced to 5 μM, and/or extracellular Ca^2+ raised to 2 mM.
Visually guided whole-cell patch recordings were obtained from CA1 pyramidal neurons in a voltage clamp or current clamp configuration using an Axopatch 200A (Axon Instruments) and a borosilicate patch pipette of 5-7 MΩ resistance. […] Records were filtered at 5 kHz and digitized at 20 kHz using a Digidata 1200 A/D board.
Synaptic responses were evoked by applying 0.1 ms current injection (1-100 μA) to a bipolar stimulating electrode placed in the stratum radiatum. Thrombin (Calbiochem) concentration was determined as described by Gingrich et al. (2000) using conversion of 1 U/ml=10 nM. TFLLR and thrombin were applied by gravity perfusion at 1.0 ml/min, with extensive washing of perfusion lines, chamber, and objective between experiments to remove all residual thrombin, which has been reported to irreversibly cleave and PAR1 at a pM concentration. Removal of all thrombin ensured that PAR1 receptors were not pre-cleaved by residual thrombin prior to experimentation.

[4] = tested on: synaptic NMDA receptors; experiment: Evoked NMDA EPSC current-voltage relationship in CA1 pyramidal cells; assay type: cell-based, rat; conditions: 100 μM APV
Procedure: as §1
as §3, with “For some experiments 0.5-1 μM TTX, 10 μM NBQX, or 10-20 μM bicuculline were added to the extracellular solution, extracellular Mg^2+ was reduced to 5 μM, and/or extracellular Ca^2+ raised to 2 mM.” left out
as §2
EPSCs were evoked by electrical stimulation of Schaffer collateral axons in the CA1 stratum radiatum, and recorded from CA1 pyramidal neurons under voltage clamp. […]

[5] = tested on: PAR1−/− cortical neurons on wild-type astrocyte monolayer; experiment: PAR1−/− cortical neurons co-cultured on wild-type astrocytes: dendritic Ca2+ and voltage clamp; assay type: cell-based, mouse
Procedure: For an astrocyte-neuron co-culture, a monolayer of wild-type astrocytes was grown to 70-100% confluency (7-14 days in culture). Subsequently, the cortex from a P0 to P5 PAR1−/− mouse (Connolly et al., 1996) was dissected free of meninges and digested for 30 min in 1 mg/ml trypsin at 37° C. PAR1−/− mice were >99% C57B1/6 (>7 backcrossings), and wild-type mice were from a colony derived from PAR1−/− littermates.
All experiments were done within 3 generations of establishing the homozygous colony. The cortical cells were plated at low density on top of the monolayer of wild-type astrocytes obtained in above Example 1.1. Neurons were used for Ca^2+ imaging after 1-5 days in culture.
Whole-cell perforated-patch recording from cultured cortical neurons or HEK cells under voltage clamp (holding potential −60 mV) was made with an Axopatch 200B amplifier (Axon Instruments, Union City, Calif.). The recording chamber was continually perfused with a recording solution comprised of 150 mM NaCl, 3 mM KCl, 2 mM CaCl2, 5.5 mM glucose, and 10 mM HEPES (pH 7.4 by NaOH; osmolality adjusted to 315-320 mOsm with sucrose). Recording electrodes (4-7 MΩ) were filled with (in mM) 150 mM CsMeSO4, 10 mM NaCl, 0.5 CaCl2, 10 mM HEPES, and 25-50 μg/ml gramicidin D (pH adjusted to 7.3 with CsOH and osmolality adjusted to 310 mOsm with sucrose). It took 20-30 min to achieve acceptable perforation with series resistance ranging from 30-60 MΩ. All electrophysiological data from cultured neurons cells in this study were collected at room temperature (23-26° C.).
After a 20 min recovery, the bath perfusion was stopped and TFLLR was applied by brief (<1 sec) pressure ejection onto the astrocyte hosting the dye-loaded neuron in a static bath condition. Changes in fluorescence were monitored in a number of dendritic processes (schematized in FIGS. 8a and 8b).

Compound: N[C@H](CCCP(=O)(O)O)C(=O)O [APV, D-2-amino-5-phosphono-valeric acid]
- effect on TFLLR potentiation of EPSP area [1]: reversed
- effect on TFLLR-induced τ2 [2]: eliminated
- effect on resting membrane potential of CA1 neurons [3]: 0.4±0.7 mV
- effect on NMDA component of evoked EPSCs [4]: blocked
- peak amplitude of TFLLR-evoked current in presence of APV ([5]; 30 μM TFLLR, 50 μM APV): 2.5±0.3 pA
- effect on TFLLR-induced dendritic fluorescence increase ([5]; APV 50 μM): blocked
